How the values were obtained:
[1] = test system: A. baumannii strain 98-37-09; assay: Cellular accumulation of minocycline (HPLC, triple-quadrupole MS); format: cell-based, Acinetobacter baumannii; conditions: human serum with 0.5 μg mL^−1 minocycline plus test compound (0.5×MEC, 1×MEC), 48 hours
Protocol: High pressure liquid chromatography and triple-quadrupole mass spectrometry were used to measure the A. baumannii intracellular levels of minocycline during growth in human serum in the absence and presence of each putative efflux pump inhibitor. […] Cultures were incubated for 48 hours with shaking, at which point an aliquot was removed, serially diluted, and plated to determine the number of viable CFU per mixture. The remainder of the cells were pelleted by centrifugation at 900×g at 4° C., washed twice in PBS, mechanically lysed with a FastPrep cell disrupter (MP Biomedicals, Santa Ana, Calif.) for 20 seconds at 5 m s^−1 and the cellular debris was pelleted via centrifugation at 900×g and 4° C. The amount of minocycline present within the supernatant of ruptured cells was measured. Briefly, doxycycline (0.5 μg mL^−1) was first added to each supernatant to serve as an internal control to account for sample-to-sample preparation variability. The supernatant was then combined with acetonitrile (ACN) at a 1:10 ratio and centrifuged at 16,000×g, at 4° C., to collect minocycline and doxycycline. […] residual liquid was evaporated in a speed vacuum for 2 hours at 8,000×g. To quantify the amount of antibiotics retained, sample materials were suspended in 50% acetonitrile, filtered through a 0.2 μm low protein binding hydrophilic membrane (Millipore, Billerica, Mass.) then separated on Shimadzu high performance liquid chromatography instrument (Fisher Scientific) using a BetaBasic C18 reverse phase column (Thermo Scientific). Separation was carried out with two mobile phase solutions consisting of solution (A) water with 0.1% formic acid and solution (B) 100% ACN. The gradient profile of the chromatography runs was as follows: from 0 to 0.1 min 8% solution B, ramp step wise (37% to 60% solution B) from 0.1 to 6.5 min then holding for one minute before ramping down from 60% to 10% from 7.5 to 8 min. This was followed a hold at 10% solution B for one minute. […] The column was equilibrated in 8% solution B at 40° C. and the flow rate was set to 0.2 mL min^−1. Mass spectrometry analysis of fractions was carried out using a Thermo TSQ Quantum Ultra triple quadrupole mass spectrometer (Fisher Scientific). Data were analyzed using Xcalibur software (Thermo Scientific); the following parameters were used to detect minocycline and the internal control doxycycline: 458.208 m/z→282.971 m/z (collision energy=43, tube lens=119) for minocycline and 445.144 m/z→266.900 m/z (collision energy=39, tube lens=127) for doxycycline. Analysis of the raw data was conducted by using the area under the curve calculations with the Genesis algorithm to determine the concentration in each sample. The difference between the peak intensity and the y intercept of pre-established minocycline and doxycycline standard curves was divided by the slope of the standard curve to quantify the amount of minocycline within each sample. The total concentration of minocycline within each cell was calculated by normalizing to the number of cells within each corresponding culture.

[2] = test system: A. baumannii strain 98-37-09; assay: MEC determination: potentiation of minocycline toward serum grown A. baumannii; format: cell-based, Acinetobacter baumannii; conditions: for Log-reduction Colony Forming Units (ml^−1): 1×MEC of compound plus minocycline in serum, versus minocycline alone, plating; for MEC: lowest concentration inhibiting growth in 100% human serum with 0.5 μg ml^−1 minocycline, 48 hr
Protocol: The TimTec ActiProbe-25K diversity-set and Natural Product compound libraries (29,900 compounds total; TimTec, Newark, Del.) were initially screened for putative efflux pump inhibitors by identifying compounds that potentiated the antimicrobial property of a sub-inhibitory concentration of minocycline toward A. baumannii grown in human serum. To do so, A. baumannii strain 98-37-09 was grown for 16 hours in LB medium at 37° C. on a rotary shaker at 225 rpm. Approximately 1×10^5 CFU were then transferred to individual wells of a 96-well round-bottom plate (Corning Costar, Tewksbury, Mass.) containing 100 μL of human serum supplemented with of minocycline (0.5 μg mL^−1; 0.5× minimum inhibitory concentration in serum) and individual members of the Timtec ActiProbe or Natural product library (50 μM). Plates were then incubated at 37° C. for 48 hours. Growth was measured as a function of turbidity. Putative efflux pump inhibitors were identified as compounds that inhibited A. baumannii growth in human serum containing minocycline and were subsequently retested in triplicate, as indicated above. Untreated A. baumannii grown in serum supplemented with minocycline+/−PAβN served as positive and negative controls, respectively. […] Repeat testing in which well constituents were serial diluted and plated on LB agar plates validated that 85 compounds did indeed limit A. baumannii growth in serum supplemented with minocycline, reducing the number of viable colony forming units between 2-6 log cfu in comparison to minocycline alone treated cells.
The MEC was defined as the lowest concentration of test compound required to inhibit the growth of A. baumannii in serum in the presence of 0.5 μg ml^−1 minocycline. Plating confirmed that addition of 1×MEC of each compound elicited ≥1.9-log reduction in A. baumannii cells grown in serum supplemented with minocycline alone (see Table 1).

Structure (SMILES) | Minocylcine Per Cell (femtomoles cell^−1) [1] [femtomoles cell^−1] | Log-reduction Colony Forming Units (ml^−1) [2] [log] | MEC [2] [µg/mL]
O=[N+]([O-])c1cc(/C=N/c2ccc(S(=O)(=O)NC3NC=CS3)cc2)c2c(c1)COCO2 (stereo not drawn) [ST012941] | 8.12E−09 | 6.23 | 64
O=S(=O)(Nc1nccs1)c1ccc(/N=C/c2cc(Cl)cc3c2OCOC3)cc1 [ST012955] | 1.04E−08 | 4.42 | 32
C/C(=N\c1ccc(S(=O)(=O)Nc2nccs2)cc1)c1ccc(O)cc1O [ST012963] | 3.23E−08 | 3.90 | 32
NNC(=O)CSCc1ccc(Cl)cc1 [ST020992] | 1.53E−07 | 7.43 | 2
C/C(Cn1nnc([N+](=O)[O-])n1)=N\NC(=O)CC#N [ST025773] | 1.04E−07 | 8.00 | 32
CCCCCCCN1C(=O)/C(=c2\sc3n(c2=O)C(c2ccc(OC(=O)c4ccco4)cc2)C(C(=O)OC)=C(C)N=3)c2ccccc21 (stereo not drawn) [ST029434] | 1.73E−08 | 3.02 | 64
N#Cc1c(/N=C/c2ccco2)sc2c1CCCC2 [ST033063] | 5.84E−08 | 1.93 | 2
COc1ccc(C=O)cc1Cn1nnc2ccccc21 [ST033235] | 6.652E−08 | 2.21 | 32
Cc1cccc(N(CC(=O)NC23CC4CC(CC(C4)C2)C3)S(=O)(=O)c2ccccc2)c1 [ST034012] | 1.55E−07 | 2.00 | 2
COc1ccccc1C1N(Cc2ccccc2)CCN1Cc1ccccc1 [ST036365] | 3.59E−08 | 3.50 | 4
CCOC(=O)C1=C(CN2CCCCC2)NC(=O)NC1c1ccc2c(c1)OCO2 (stereo not drawn) [ST058478] | 1.52E−07 | 6.33 | 64
CN1CCN(C(=O)CCSc2ccccc2)CC1 [ST058672] | 3.2E−07 | 5.97 | 4
CC(C)CCOC(=O)C(NS(=O)(=O)c1ccc2c(c1)CCN2S(C)(=O)=O)c1ccccc1 (stereo not drawn) [ST058811] | 2.48E−07 | 6.17 | 4
CCOc1cc(C(=O)N2CC(=O)Nc3ccccc32)cc(OCC)c1OCC [ST059010] | 3.78E−08 | 6.11 | 32

Source: patent US10471028B2, “Small molecule efflux pump inhibitors” (UNIVERSITY OF ROCHESTER, priority 2014, dated 2019)
